Structures can show the parent of a compound that is named as a salt.
How the values were obtained:
[1] = system: iPSC differentiation cultures on Laminin 521; assay: WNT agonist addition to iPSC directed differentiation (immunofluorescence); assay type: cell-based, human; conditions: for Stage 1 differentiation efficiency at day 6 (CD31 and CD34 immunofluorescence): 0.6 μM CHIR98014 or 6 μM CHIR99021 for the first 48 hours
From the text: WNT signaling is important during development. The GSK3 kinase inhibitors CHIR98014 and CHIR99021 act as WNT agonists. […] The control and CHIR98014 cultures were then transitioned to Stage 2, where the production and release of preMKs were tracked by immunofluorescence staining of CD41 and CD43.

human washed platelets = assay: Small-molecule loading of human washed platelets by passive diffusion; assay type: cell-based; conditions: 100 μM, 1e7 platelets in 1 ml, ambient temperature, dialysis cassette
Protocol: 100 μM of Doxorubicin was used with a preparation of 1e7 platelets in 1 ml of buffer and incubated at ambient temperature for 30, 120, 240, and 1440 minutes under constant agitation on an orbital shaker in a dialysis cassette (Thermofisher #88400). […] A kinetic study was employed to understand the minimum and maximum amount of time necessary for doxorubicin encapsulation in the washed platelets.

[2] = system: iPSC differentiation cultures; assay: Order and timing of Stage 1 growth factor addition, preMK yields; assay type: cell-based, human; conditions: Experiment B
[3] = system: iPSC 3D differentiation cultures; assay: Soluble Laminin 521 addition in 3D iPSC differentiation, preMK yields; assay type: cell-based, human; conditions: for preMK yields in Stage 2 vs control without addition: addition at Day −1 or Day 6
Protocol: […] 24 hours later, the media was replaced with Stage 1 media and media exchanges were performed for 6 days. […] Media was then exchanged with Stage 2 media, with or without soluble Laminin 521. 24 hours later, daily half media exchanges were performed for up to 6 additional days.

Cc1c[nH]c(-c2cnc(NCCNc3ccc(C#N)cn3)nc2-c2ccc(Cl)cc2Cl)n1 [CHIR99021]
Stage 1 differentiation efficiency at day 6 (CD31 and CD34 immunofluorescence) [1]: dramatic increase

COc1cccc2c1C(=O)c1c(O)c3c(c(O)c1C2=O)C[C@@](O)(C(=O)CO)C[C@@H]3O[C@H]1C[C@H](N)[C@H](O)[C@H](C)O1 [doxorubicin, Doxorubicin hydrochloride]
incubation time sufficient to see detectable doxorubicin in platelets (human washed platelets): 30 min

CHIR98014
Stage 1 differentiation efficiency at day 6 (CD31 and CD34 immunofluorescence) [1]: dramatic increase
Stage 2 output (visual estimation of CD41+ cells) ([1]; 0.6 μM in first 48 hours of Stage 1): higher output

FGF2: basic fibroblast growth factor, Stage 1 media growth factor
requirement of growth factor during Stage 1 differentiation [2]: critical for differentiation to proceed effectively

Laminin 521: soluble recombinant human protein Laminin 521
preMK yields in Stage 2 vs control without addition ([3]; 96-well U-bottom ultra-low adherent plate): increased the preMK yields
preMK yields in Stage 2 vs control without addition ([3]; agitated 6-well ultra-low adherent plate on orbital shaker): increased the preMK yields
Laminin 521 effect on preMK yields with single-cell passaged iPSCs ([3]; self-aggregation in NutriStem): effect was amplified

B1: BMP4: bone morphogenic protein 4, Stage 1 media growth factor (protein, UniProt P12644 293-408, looked up)
Bone morphogenetic protein 4: SPKHHSQRARKKNKNCRRHSLYVDFSDVGWNDWIVAPPGYQAFYCHGDCPFPLADHLNSTNHAIVQTLVNSVNSSIPKACCVPTELSAISMLYLDEYDKVVLKNYQEMVVEGCGCR
requirement of growth factor during Stage 1 differentiation [2]: dispensable beyond 24 hours

From US12403161B2, “Compositions for drug delivery and methods of use thereof” (Stellular Bio, Inc., priority 2018, dated 2025)
